# Data: US12187759B2, “TLR7 agonists” (Primmune Therapeutics, Inc., priority 2019, dated 2025)
# Key:
# [1] = biological target: T1, human TLR7 (Homo sapiens, UniProt Q9NYK1); assay: TLR7 reporter cell assay (HEK293 cells stably expressing human TLR7 with NF-κB-driven SEAP reporter); format: cell-based; details: 15-24 hours
# T1 construct: host or cells: HEK293
# T1 sequence (Q9NYK1 27-1049): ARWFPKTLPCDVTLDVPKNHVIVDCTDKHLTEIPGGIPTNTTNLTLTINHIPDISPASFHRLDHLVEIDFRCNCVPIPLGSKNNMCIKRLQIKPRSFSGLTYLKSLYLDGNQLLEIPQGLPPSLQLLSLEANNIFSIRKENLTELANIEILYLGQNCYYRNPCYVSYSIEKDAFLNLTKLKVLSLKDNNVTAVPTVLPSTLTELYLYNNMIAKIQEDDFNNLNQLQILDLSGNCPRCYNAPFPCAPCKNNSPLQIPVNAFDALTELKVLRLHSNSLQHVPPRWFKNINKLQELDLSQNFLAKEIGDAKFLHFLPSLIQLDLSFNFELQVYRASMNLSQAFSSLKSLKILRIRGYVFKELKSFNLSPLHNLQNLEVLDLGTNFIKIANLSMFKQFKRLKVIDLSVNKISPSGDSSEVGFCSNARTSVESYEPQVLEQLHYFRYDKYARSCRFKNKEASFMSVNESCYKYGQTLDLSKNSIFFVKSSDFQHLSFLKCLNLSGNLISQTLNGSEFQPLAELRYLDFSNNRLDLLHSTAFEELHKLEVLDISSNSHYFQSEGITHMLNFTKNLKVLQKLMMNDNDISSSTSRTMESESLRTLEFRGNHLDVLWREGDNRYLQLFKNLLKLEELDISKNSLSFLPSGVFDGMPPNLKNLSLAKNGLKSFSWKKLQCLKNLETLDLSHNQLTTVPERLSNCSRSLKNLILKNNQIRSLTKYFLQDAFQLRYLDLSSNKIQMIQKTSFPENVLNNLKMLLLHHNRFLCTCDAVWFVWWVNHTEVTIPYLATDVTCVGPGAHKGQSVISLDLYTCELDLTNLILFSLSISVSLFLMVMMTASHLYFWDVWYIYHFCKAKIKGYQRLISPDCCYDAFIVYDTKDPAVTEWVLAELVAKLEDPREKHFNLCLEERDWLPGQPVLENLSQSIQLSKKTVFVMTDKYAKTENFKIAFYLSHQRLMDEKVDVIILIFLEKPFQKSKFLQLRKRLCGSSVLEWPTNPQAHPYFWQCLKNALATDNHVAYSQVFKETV
# Outline: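 HEK293 cells stably expressing human TLR7 with an NF-κB-driven SEAP reporter, treated with compound for 15-24 hours. SEAP read at OD 650 nm. EC50 fitted by nonlinear least squares, maximum set by 28.5 μM resiquimod.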
# [2] = biological target: T2, human TLR8 (Homo sapiens, UniProt Q9NR97); assay: TLR8 reporter cell assay (HEK293 cells stably expressing human TLR8 with NF-κB-driven SEAP reporter); format: cell-based; details: concentrations up to 500 μM; significant = >5% of ymax
# T2 construct: host or cells: HEK293
# T2 sequence (Q9NR97 27-1041): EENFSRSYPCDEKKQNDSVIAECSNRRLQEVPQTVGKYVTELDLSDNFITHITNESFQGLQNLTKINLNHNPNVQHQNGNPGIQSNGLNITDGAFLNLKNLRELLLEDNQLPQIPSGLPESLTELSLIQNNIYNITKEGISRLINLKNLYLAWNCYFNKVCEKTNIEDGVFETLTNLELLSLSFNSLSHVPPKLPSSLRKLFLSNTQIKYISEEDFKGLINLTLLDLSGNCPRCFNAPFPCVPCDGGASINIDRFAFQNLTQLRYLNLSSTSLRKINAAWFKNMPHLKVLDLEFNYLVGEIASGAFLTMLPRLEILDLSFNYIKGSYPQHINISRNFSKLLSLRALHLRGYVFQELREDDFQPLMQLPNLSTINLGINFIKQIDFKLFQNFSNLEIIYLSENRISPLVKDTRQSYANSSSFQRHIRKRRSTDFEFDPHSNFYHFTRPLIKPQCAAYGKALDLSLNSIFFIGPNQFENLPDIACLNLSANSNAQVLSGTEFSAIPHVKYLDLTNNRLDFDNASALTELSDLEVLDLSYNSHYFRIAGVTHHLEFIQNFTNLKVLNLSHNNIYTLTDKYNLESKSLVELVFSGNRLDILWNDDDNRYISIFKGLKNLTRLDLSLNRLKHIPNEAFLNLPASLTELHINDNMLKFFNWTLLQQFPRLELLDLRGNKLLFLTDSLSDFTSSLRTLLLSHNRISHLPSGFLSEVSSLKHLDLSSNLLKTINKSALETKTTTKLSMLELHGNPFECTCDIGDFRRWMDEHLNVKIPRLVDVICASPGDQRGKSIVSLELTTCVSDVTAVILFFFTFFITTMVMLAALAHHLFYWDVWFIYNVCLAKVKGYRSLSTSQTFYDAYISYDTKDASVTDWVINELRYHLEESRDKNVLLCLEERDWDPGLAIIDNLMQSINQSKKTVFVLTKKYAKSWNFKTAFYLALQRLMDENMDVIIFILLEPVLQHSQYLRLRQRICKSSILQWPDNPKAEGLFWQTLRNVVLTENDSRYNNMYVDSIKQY
# Source text: The engagement of TLRs by cognate ligands triggers downstream signaling cascades, leading to the activation of NF-κB and other transcription factors which initiate various immunomodulatory effects. The human embryonic kidney cell line, HEK293, is essentially non-responsive to TLR agonists, but ectopic expression of TLRs in these cells allows cognate agonists to activate endogenous NF-κB. Accordingly, the HEK293-TLR-NF-κB inducible reporter system is used to assay TLR agonists.
# HEK293 cell lines stably expressing human TLR7 or TLR8 together with an NF-κB-driven-secreted alkaline phosphatase (SEAP) reporter were invented at InvivoGen (San Diego, California, USA) and used to assess compounds of the present invention for TLR7 and TLR8 agonist activities. Cells were seeded at 2-5×10^4 cells/well in 96 well plates (200 μl/well) and treated with various concentrations of compound (10 μl) for 15-24 hours. SEAP activity was determined by measuring OD at 650 nm; the media used to culture the cell lines contains the reagents required for SEAP detection. […]
structure (smiles),measurement,setting,value
"CC[C@H](O)[C@@H]1C[C@@H](O)[C@H](n2c(=O)sc3c(=O)[nH]c(N)nc32)O1 [Compound A, 5-amino-3-((2R,3R,5S)-3-hydroxy-5-((S)-1-hydroxypropyl)tetrahydrofuran-2-yl)thiazolo[4,5-d]pyrimidine-2,7(3H,6H)-dione, reference compound]",Emax at 500 µM,"[1]; HEK293, 500 μM compound, SEAP activity (OD 650 nm) relative to 28.5 μM resiquimod, read-out: Response at 500 μM Compound as a Percent of Resiquimod Response",74%
same,EC50,"[1]; fit of SEAP dose response, ymax from 28.5 μM resiquimod",51 µM
same,activity in TLR8 reporter cell assay (% of ymax for TLR8 as measured at 28.5 μM resiquimod),[2],> 5 % of ymax
